Values joined by “and” are separate entries in the source; they are usually repeats but may differ in a detail not shown here. Equal entries are not always repeated.
Experiments:
Type in all cases: ADME, organism-based
[1] = (§1) Pharmacokinetic parameters for Levofloxacin evaluated after oral or IV single dose administration of 250, 500 or 750 mg Levofloxacin to male and/or female subjects of variable age ranges and health status.; parameters: dose 250 mg, dose 500 mg, dose 750 mg, route oral, route iv; details: human, in vivo
Homo sapiens [2] = assay: as §1; parameters: dose 250 mg, dose 500 mg, dose 750 mg, route oral, route iv; details: in vivo
[3] = (§2) Pharmacokinetic parameters for Levofloxacin evaluated after multiple oral or IV administration of 250, 500 or 750 mg Levofloxacin, to male and/or female subjects of variable age ranges and health status.; parameters: dose 500 mg, dose 750 mg, dose 250 mg, route iv, route oral; details: human, in vivo; for CL renal: read-out: CL_renal
Homo sapiens [4] = assay: as §2; parameters: dose 500 mg, dose 750 mg, dose 250 mg, route iv, route oral; details: in vivo

C[C@H]1COc2c(N3CCN(C)CC3)c(F)cc3c(=O)c(C(=O)O)cn1c23.C[C@H]1COc2c(N3CCN(C)CC3)c(F)cc3c(=O)c(C(=O)O)cn1c23.O [LEVOFLOXACIN]
Tmax ([1]; iv): 1 h
half-life ([1]; iv): 6.4 h
CL renal ([1]; iv, read-out: CL_renal): 112 mL/min
Vd/F ([1]; po): 112 L
CL/F (Homo sapiens [2]; iv): 175 mL/min and 126 mL/min
Vd/F (Homo sapiens [2]; iv): 90 L and 75 L
t1/2 (Homo sapiens [2]; iv): 7.5 h
Vd/F (Homo sapiens [2]; po): 83 L and 89 L and 62 L and 67 L
half-life ([3]; iv): 7.9 h
CL renal ([3]; iv): 99 mL/min
CL/F ([3]; po): 175 mL/min
Tmax ([3]; po): 1.4 h
Vd/F ([3]; po): 102 L
half-life ([3]; po): 8.8 h
CL renal ([3]; po): 116 mL/min
AUC (Homo sapiens [4]): 72.5 mcg.hr/mL [middle of 5 runs]
Cmax (Homo sapiens [4]): 8.6 mcg/mL [middle of 5 runs]
CL/F (Homo sapiens [4]; iv): 154 mL/min and 126 mL/min and 158 mL/min
Vd/F (Homo sapiens [4]; iv): 111 L and 80 L and 91 L
t1/2 (Homo sapiens [4]; iv): 7 h
CL/F (Homo sapiens [4]; po): 143 mL/min
Vd/F (Homo sapiens [4]; po): 100 L

From ChEMBL document CHEMBL3832078
